In PubChem BioAssay (NCI):
Values joined by “and” are separate entries in the source; they are usually repeats but may differ in a detail not shown here. Equal values may be shown once.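 Compound exposure: 48 hours, 5 concentrations, 96-well plates. The concentration for 50% growth inhibition is given as GI50. Definition used: TGI = concentration required for complete inhibition of growth.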

Legend:
Test in all cases: growth of human tumour cells (NCI), 48 h
[1] = test system: KM20L2 colon
[2] = test system: CAKI-1 renal
[3] = test system: SF-295 CNS
[4] = test system: NCI-H226 lung
[5] = test system: NCI-H23 lung
[6] = test system: IGROV1 ovarian
[7] = test system: SK-OV-3 ovarian
[8] = test system: COLO 205 colon
[9] = test system: DMS 273 small cell lung
[10] = test system: MCF7 breast

| SMILES | TGI [1] [µM] | TGI [2] | TGI [3] | TGI [4] | TGI [5] | TGI [6] | TGI [7] | TGI [8] | TGI [9] [µM] | GI50 [4] [µM] | GI50 [5] [µM] | GI50 [6] [µM] | GI50 [7] [µM] | GI50 [8] [µM] | GI50 [10] [µM] | TGI [10] | GI50 [2] [µM] | GI50 [3] [µM] | GI50 [1] [µM] | GI50 [9] [µM] |
| --- | --- | --- | --- | --- | --- | --- | --- | --- | --- | --- | --- | --- | --- | --- | --- | --- | --- | --- | --- | --- |
| Cc1cc(NS(=O)(=O)c2ccc(N=Nc3cc(N=Nc4ccc(S(=O)(=O)Nc5cc(C)nc(C)n5)cc4)c4c(NC(=O)C(Cl)Cl)cccc4c3OC(=O)C(Cl)Cl)cc2)nc(C)n1 (tested in a mixture with another compound) | 60.8 | 78.6 µM | 77.6 µM | 44.9 µM | 78.3 µM | 53.2 µM | > 100 µM | 74.9 µM | 83.9 | – | – | – | – | – | – | – | – | – | – | – |
| COc1ccc2c(=O)c(C)c(-c3ccccc3)oc2c1CN(C)C | > 100 | > 100 µM | > 100 µM | > 100 µM | > 100 µM | > 100 µM | > 100 µM | > 100 µM | > 100 | – | – | – | – | – | – | – | – | – | – | – |
| COC(=O)NC1C(C)OC(OC2C/C=C(/C)C3C=CC4C(OC5CC(OC6CC(O)C(OC7CC(O)C(OC)C(C)O7)C(C)O6)C(O)C(C)O5)C(C)CC(C)C4C3(C)/C(O)=C3\C(=O)OC4(CC(C)C(CO)=CC4/C=C\2C)C3=O)CC1(C)[N+](=O)[O-] (stereo unspecified) | 34 | 47.3 µM and 41.1 µM | 50 µM and 38.9 µM | 22.3 µM and 31.6 µM | 17.2 µM and 27.8 µM | 34 µM and 28.5 µM | 50 µM and 20.9 µM | 16.3 µM and 13 µM | 28.9 | 10 | 8.68 | 12.7 | 10.3 | 9.29 | 11.8 | 44 µM and 13.3 µM | – | – | – | – |
| CCOC(=O)C12CCCC1(O)N(NC(=O)c1ccccc1)C(C)=C2C(=O)OC (stereo unspecified) | > 100 | > 100 µM | > 100 µM | > 100 µM | > 100 µM | > 100 µM | > 100 µM | > 100 µM | > 100 | – | – | – | – | – | – | – | – | – | – | – |
| Cc1ccc(NC(=O)C(=O)C2C(=O)N(c3ccccc3)N=C2N)cc1C (stereo unspecified) | > 100 | > 100 µM | > 100 µM | > 100 µM | > 100 µM | > 100 µM | > 100 µM | > 100 µM | > 100 | – | – | – | – | – | – | – | – | – | – | – |
| CCC(C)(C)C(=O)O[C@H]1C[C@@H](C)C=C2C=C[C@H](C)[C@H](CC[C@@H]3C[C@@H](O)CC(=O)O3)[C@H]21 | > 30 | 3.73 µM and 8.56 µM | 8.03 µM and 2.61 µM | 9.27 µM | 15.3 µM and 3.55 µM | 13.2 µM and 4.5 µM | 21 µM and > 30 µM | 14.7 µM and 23.6 µM | > 30 | 2.32 | 1.79 | 2.08 | 7.56 | 4.14 | 12.2 | 26.7 µM | 0.941 | 0.434 | – | – |
| O=S(=O)(/C=C/c1ccc(Cl)cc1Cl)Cc1ccccc1CS(=O)(=O)/C=C/c1ccc(Cl)cc1Cl | > 100 | > 100 µM | > 100 µM | > 100 µM | > 100 µM | > 100 µM | > 100 µM | > 100 µM | > 100 | – | – | – | – | – | – | – | – | – | – | – |
| O=c1cccccc1NCCOCCNc1cccccc1=O | > 100 | > 100 µM | > 100 µM | > 100 µM | > 100 µM | > 100 µM | > 100 µM | > 100 µM | > 100 | – | – | – | – | – | – | – | – | – | – | – |
| CCC[CH2][Sn]1([CH2]CCC)[O]C(=O)c2cc(I)cc(I)c2[O]1 | 3.39 | 2.15 µM | 3.53 µM | 3.29 µM | 2.9 µM | 3.36 µM | 4.65 µM | 1.97 µM | 2.82 | 1.75 | 1.18 | 1.81 | 2.09 | 0.702 | – | – | 0.637 | 1.91 | 1.84 | 1.28 |
| Cc1[nH]c2ccccc2c1C1Cc2ccccc2N1C(=O)/C=C/C=C/c1ccccc1 (stereo unspecified) | > 100 | > 100 µM | > 100 µM | > 100 µM | > 100 µM | > 100 µM | > 100 µM | > 100 µM | > 100 | – | – | – | – | – | – | – | – | – | – | – |
| CCCCCCCCCCCCCC(=O)O[C@H]1CC[C@H](NC(=O)[C@H](OC)[C@H](O)[C@@H](O)[C@H](O)/C=C/C(C)C)C(=O)NC1 | 8.34 | – | – | 4.29 µM | 4.77 µM and 0.5 µM | 8.51 µM and 2.71 µM | 51.2 µM and > 100 µM | 0.00374 µM and 0.0154 µM | 0.0303 | 0.00206 | – | – | – | – | 0.00512 | 8.64 µM and 22.6 µM | – | – | 0.0453 | < 0.001 |
| CC(=O)OC(/C=C1/C=CC(=O)O1)COC(=O)c1ccccc1 (stereo unspecified) | > 31.2 | > 31.2 µM | > 31.2 µM | > 31.2 µM | > 31.2 µM | > 31.2 µM | > 31.2 µM | > 31.2 µM | > 31.2 | – | – | – | – | – | – | – | – | – | – | – |
